In US20170239351A1, “Therapeutic Combinations of a BTK Inhibitor, a PI3K Inhibitor, a JAK-2 Inhibitor, a PD-1 Inhibitor, and/or a PD-L1 Inhibitor” (Acerta Pharma B.V., priority 2014, published 2017):

Columns and labels:
[1] = tested on: primary CLL cells; assay: Rituximab ADCC assay (51Cr release), NK cells against autologous tumor cells; assay type: cell-based, human; conditions: 1 μM; primary CLL samples
[2] = tested on: CD8^+ T cell function; assay: Cytotoxicity assay for CD8+ T cell function; assay type: cell-based; conditions: relative to vehicle
[3] = tested on: CD8^+ T cell; assay: CD8+ T cell viability; assay type: cell-based
[4] = tested on: ID8 ovarian cancer; assay: ID8 syngeneic orthotropic ovarian cancer murine model; assay type: in vivo, mice
Excerpt: Human ovarian cancer models, including the ID8 syngeneic orthotropic ovarian cancer model and other animal models, are described in Fong and Kakar, J. Ovarian Res. 2009, 2, 12; Greenaway, et al., Gynecol. Oncol. 2008, 108, 385-94; Urzua, et al., Tumour Biol. 2005, 26, 236-44; Janat-Amsbury, et al., Anticancer Res. 2006, 26, 3223-28; Janat-Amsbury, et al., Anticancer Res. 2006, 26, 2785-89. […] The results of the study are shown in FIG. 100, FIG. 101, FIG. 102, FIG. 103, FIG. 104, FIG. 105, FIG. 106, and FIG. 107.
Each cohort consisted of 12 mice. Every two weeks mice are injected with luciferin, and tumor growth was monitored using the Xenogen system (Caliper Life Sciences, PerkinElmer, Hopkinton, Mass., USA). Tumor size was measured by calculated flux.
The experiments were performed as described in Example 7.

[5] = tested on: CLL; assay: Clinical study of Formula (XVIII) in CLL; assay type: in vivo
[6] = Cardiovascular function study in awake telemeterized animals; conditions: single doses through 30 mg/kg
[7] = tested on: relapsed/refractory CLL; conditions: human, in vivo
[8] = tested on: B cell lymphoma; assay: Veterinary clinical trial in canine B cell lymphoma; assay type: in vivo, companion dogs
Excerpt: Canine B cell lymphoma exists as a pathological entity that is characterized by large anaplastic, centroblastic or immunoblastic lymphocytes with high proliferative grade, significant peripheral lymphadenopathy and an aggressive clinical course. While some dogs respond initially to prednisone, most canine lymphomas progress quickly and must be treated with combination therapies, including cyclophosphamide, vincristine, doxorubicin, and prednisone (CHOP), or other cytotoxic agents. In their histopathologic features, clinical course, and high relapse rate after initial treatment, canine B cell lymphomas resemble diffuse large B cell lymphoma (DLBCL) in humans. Thus, responses of canine B cell lymphomas to experimental treatments are considered to provide proof of concept for therapeutic candidates in DLBCL.
Enrollment has completed for both arms.
Intra-subject dose escalation was allowed. Six of the 11 dogs that initiated at 2.5 or 5 mg/kg once daily were escalated and completed the study with dosages of 10 mg/kg twice daily. Among all the dose cohorts, 8 dogs had shrinkage of target lesions >20%; the best tumor responses were between 45-49% reduction in the sum of target lesions in two dogs. […] CR were defined as disappearance of all evidence of disease per evaluator judgment, and absence of new lesions. Vali, et al., Vet. Comp. Oncol. 2010, 8, 28-37. […]

[9] = tested on: T helper 17 (Th17) cells; assay: Effect on T helper 17 (Th17) cells; assay type: cell-based
[10] = Functional observation battery (GLP safety pharmacology); conditions: doses through 300 mg/kg
[11] = tested on: NSCLC lung tumors; assay: Genetic tumor model of NSCLC (KrasLA2); assay type: in vivo, mice; conditions: 15 mg/kg
Excerpt: The model is designed to have sporadic expression in single cells of G12D mutant Kras off its own promoter triggered by spontaneous intrachromosomal recombination. Johnson, et al. Nature 2001, 410, 1111-16. While the mutant Kras protein is expressed in a few cells in all tissues, tumor development is seen only in the lung at high penetrance.

[12] = tested on: regulatory T cell (Treg) development; assay: Regulatory T cell (Treg) development; assay type: cell-based
[13] = target: CYP3A4 (Homo sapiens, UniProt P08684); assay: In vitro CYP metabolism and CYP interaction studies; assay type: in vitro ADME
CYP3A4, sequence (P08684 whole entry): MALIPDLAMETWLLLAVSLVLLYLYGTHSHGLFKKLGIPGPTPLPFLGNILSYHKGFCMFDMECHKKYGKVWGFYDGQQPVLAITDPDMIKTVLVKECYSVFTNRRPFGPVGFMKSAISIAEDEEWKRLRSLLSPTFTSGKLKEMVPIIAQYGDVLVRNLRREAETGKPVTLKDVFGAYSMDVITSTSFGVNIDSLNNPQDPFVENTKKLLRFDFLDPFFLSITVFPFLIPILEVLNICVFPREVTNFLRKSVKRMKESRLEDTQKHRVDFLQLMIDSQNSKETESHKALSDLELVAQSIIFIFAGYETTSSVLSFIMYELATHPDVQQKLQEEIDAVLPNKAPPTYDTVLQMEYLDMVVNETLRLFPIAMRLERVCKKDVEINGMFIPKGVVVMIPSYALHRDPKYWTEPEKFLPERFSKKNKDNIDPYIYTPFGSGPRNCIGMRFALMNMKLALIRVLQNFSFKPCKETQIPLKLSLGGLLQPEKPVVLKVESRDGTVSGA

[14] = tested on: NK cells; assay: Whole blood NK cell degranulation/ADCC assay with obinutuzumab-opsonised MEC-1 cells; assay type: cell-based, human; conditions: CD56+/CD107a+ NK cells; n=3 experiments
[15] = tested on: Raji cells; assay: Rituximab ADCC assay (51Cr release), healthy donor NK cells; assay type: cell-based, human; conditions: 1 μM
[16] = tested on: KrasL2 NSCLC; assay: KrasL2 NSCLC model; conditions: in vivo
[17] = tested on: NK cells; assay: Antibody-stimulated NK cell degranulation (CD107a), flow cytometry; assay type: cell-based, human; conditions: DHL-4 target cells
[18] = tested on: pancreatic cancer; assay: KPC pancreatic cancer model (spontaneously appearing tumors); assay type: in vivo, KPC mice; conditions: 15 mg/kg BID oral
Method: The KPC mouse model recapitulates many of the molecular, histopathologic, and clinical features of human disease (Westphalen and Olive, Cancer J. 2012, 18, 502-510). Combination therapy with gemcitabine was also evaluated in this model. Mice were enrolled after identification of spontaneously appearing tumors in the pancreas that were ≧100 mm^3 (as assessed by high-resolution ultrasonography).

[19] = In vitro metabolism in hepatocytes with 14C-labeled drug; assay type: in vitro ADME, mouse, rat, dog, rabbit, monkey, and human
[20] = Brain penetration study; conditions: in vivo

CC#CC(=O)N1CCC[C@H]1c1nc(-c2ccc(C(=O)Nc3ccccn3)cc2)c2c(N)nccn12 [Formula (XVIII), (S)-4-(8-amino-3-(1-(but-2-ynoyl)pyrrolidin-2-yl)imidazo[1,5-a]pyrazin-1-yl)-N-(pyridin-2-yl)benzamide]
effect on rituximab-mediated ADCC [1]: not inhibited | CD8+ T cell function as measured by % cytotoxicity [2]: no effect on CD8^+ T cell function | effect on CD8+ T cell viability [3]: no effect on CD8^+ T cell viability | cytolytic CD8^+ T cells ([4]; 15 mg/kg/BID oral): increase | immunosuppressive B cells in tumor-bearing mice ([4]; 15 mg/kg/BID oral): significant reduction | immunosuppressive tumor associated Tregs ([4]; 15 mg/kg/BID oral): significant reduction | ID8 ovarian cancer growth ([4]; Formula (XVIII) 15 mg/kg BID oral, antibody 150 μg): impairs ID8 ovarian cancer growth | apoptosis ([5]; CLL patients treated): increased apoptosis | sum of the product of greatest diameters (SPD) ([5]; CLL patients, compared with ibrutinib): decreases more rapidly | absolute lymphocyte count (ALC) ([5]; CLL patients, relative to ibrutinib data of Byrd, et al.): much smaller relative increase and much faster decrease | CCL2 levels ([5]; patients treated): decrease in CCL2 levels | CXCL12 levels ([5]; patients treated): decrease in CXCL12 levels | body temperature, cardiovascular, or ECG (including QT interval) parameters [6]: no meaningful changes | maximum tolerated dose (MTD) [7]: not reached | complete responses (CR) ([8]; Arm 1: 21 dogs, Arm 2: 10 dogs): not observed | Median time to best response ([8]; dog, in vivo): 7 days | effect on Th17 cells [9]: no adverse effect on T helper 17 (Th17) cells | neurobehavioral effects or body temperature [10]: no adverse effects | number of tumors [11]: fewer overall tumors | tumor volumes versus vehicle [11]: significant decrease in tumor volumes | effect on Treg development [12]: no effect on regulatory T cell (Treg) development | CYP responsible for loss of parent drug [13]: metabolized by CYP3A4 | drug-drug interaction potential via CYP enzymes [13]: very unlikely to cause clinical drug-drug interactions | reduction of obinutuzumab-stimulated NK cell degranulation [14]: minimal effect | effect on rituximab-mediated ADCC [15]: not inhibited | immunosuppressive tumor associated MDSCs [16]: significant reduction in immunosuppressive tumor associated MDSCs | immunosuppressive tumor associated TAMs [16]: significant reduction in immunosuppressive tumor associated TAMs | immunosuppressive tumor associated Tregs [16]: significant reduction in immunosuppressive tumor associated Tregs | inhibition of rituximab-stimulated NK cell degranulation [17]: < 2% | CD8 cells in tumor tissues [18]: significant increase | immunosuppressive TAMs, MDSCs and Tregs in tumor tissues [18]: significantly reduced | survival at day 14 [18]: 6/6 | metabolites found [19]: two mono-oxidized metabolites and a glutathione conjugate | unique human metabolite [19]: No unique human metabolite was identified | brain penetration (blood-brain barrier) [20]: crosses the blood-brain barrier
